Patent publication US8211912B2, “Compositions and methods for effecting NAD+ levels using a nicotinamide phosphoribosyl tranferase inhibitor” (Gemin X Pharmaceuticals Canada, priority 2007, dated 2012)
“And” between values parts separate entries of the source, which are not always exact repeats. Identical values can stand only once. Like-named read-outs stand apart in the source and are kept apart here.

Key:
[1] = Additional combination experiments with Compound 1; assay type: cell-based
T98G (glioblastoma) = details: 0.01, 0.1 and 1 mM nicotinic acid
GCT MFH histiocytoma = details: 0.01, 0.1 and 1 mM nicotinic acid
HT1080 fibrosarcoma = details: 0.01, 0.1 and 1 mM nicotinic acid
[2] = test system: colon cancer cell line Colo320DM; details: the only one of fourteen other carcinomas
A204 rhabdomyosarcoma = details: 0.01, 0.1 and 1 mM nicotinic acid
[3] = test system: NAD^+ levels in HeLa cells; details: Compound 1 100 nM, 10 mM nicotinic acid
Procedure: (§1) Viability was measured after 72 hours by ViaLight assay (assessing ATP levels). […] Each bar is the mean±SD of quadruplicate samples. Each figure is representative of two independent experiments.

[4] = test system: NF-κB regulated gene expression in HeLa cells; details: Compound 1 100 nM, 10 mM nicotinic acid, 24 hrs then 4 hours TNFα
Procedure: as §1

IMR32 (neuroblastoma) = details: 0.01, 0.1 and 1 mM nicotinic acid
U-2OS osteosarcome = details: 0.01, 0.1 and 1 mM nicotinic acid
SW1353 chondrosarcoma = details: 0.01, 0.1 and 1 mM nicotinic acid
[5] = test system: Hs821.T giant cell sarcome; details: 0.01, 0.1 and 1 mM nicotinic acid
MG-63 osteosarcoma = details: 0.01, 0.1 and 1 mM nicotinic acid
[6] = test system: Human Fibrosarcoma HT1080 cancer cells; test: Xenograft of a cancer deficient in nicotinic acid pathway; assay type: in vivo, mice
Procedure: (§2) Human Fibrosarcoma HT1080 cancer cells were maintained in RPMI (Hyclone, Utah, USA) supplemented with 10% inactivated fetal bovine serum (Bio-Whittaker, Md., USA) and 1% penicillin-streptomycin-L-Glutamine (Gibco; NY, USA), under 5% CO2 at 37° C. HT1080 cells were transplanted subcutaneously into the flank of female mice. Each mouse was inoculated with a suspension of 1×10^6 tumors cells per 100 μl in PBS on day zero.
Treatments started on day fifteen after HT1080 cells transplantation. […] The control group was treated with vehicle (0.9% NaCl) alone for 104 hours. Treatments were conducted using Lomir External pump—Model 220 with a flow rate of 50 μL/hr (˜2.5 mL/kg/hr) and equipped with 1 cc syringes for treated groups or equipped with 10 cc syringes for the control group. Compound 2 was prepared fresh for dosing and formulated in a vehicle solution of 10 mM citrate buffer at pH 4.8.
Observation continued for 22 days after initial tumor implantation.

[7] = test system: human multiple myeloma IM-9 cancer cells; test: Xenograft of a cancer not deficient in nicotinic acid pathway; assay type: in vivo, CB17 SCID mice
Procedure: as §2, with “multiple myeloma IM-9” for “Fibrosarcoma HT1080”, “(Bio-Whittaker; MD,” for “(Bio-Whittaker, Md.,”, “IM-9” for “HT1080”, “10×10^6” for “1×10^6”
Treatments started on day eight after IM-9 cells transplantation. […] The control group was treated with vehicle (0.9% NaCl) alone for 104 hours. […] Compound 2 was prepared fresh for dosing and formulated in a vehicle solution of 10 mM citrate buffer at pH 4.8.
Observation continued for 23 days after initial tumor implantation.

[8] = test system: SW982 synovial sarcoma cell line; details: 0.01, 0.1 and 1 mM nicotinic acid
Source text: In FIGS. 10 and 11, fraction of cell survived is indicated by the vertical axis (labeled as “% control”).

human NMPRT = human NMPRT (Homo sapiens, UniProt P43490); details: cited from earlier work
Chain of human NMPRT (P43490 whole entry): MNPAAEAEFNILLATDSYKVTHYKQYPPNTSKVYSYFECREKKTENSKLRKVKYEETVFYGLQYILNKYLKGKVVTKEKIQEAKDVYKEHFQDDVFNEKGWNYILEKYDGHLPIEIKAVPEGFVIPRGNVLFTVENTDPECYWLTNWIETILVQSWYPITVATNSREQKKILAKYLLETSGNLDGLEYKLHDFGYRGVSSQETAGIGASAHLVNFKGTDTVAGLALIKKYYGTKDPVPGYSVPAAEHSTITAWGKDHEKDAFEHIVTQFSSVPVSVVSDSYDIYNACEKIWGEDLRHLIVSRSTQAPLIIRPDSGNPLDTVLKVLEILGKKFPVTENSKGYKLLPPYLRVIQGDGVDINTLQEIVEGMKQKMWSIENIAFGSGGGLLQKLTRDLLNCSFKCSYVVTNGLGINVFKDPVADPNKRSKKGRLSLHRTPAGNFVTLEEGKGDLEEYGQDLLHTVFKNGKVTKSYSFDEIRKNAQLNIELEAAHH

[9] = Nicotinic acid pre-treatment against lethal intramuscular Compound 2 in non-tumor-bearing mice
[10] = Nicotinic acid as antidote to a lethal 24 h infusion of Compound 2 in non-tumor-bearing mice; details: Compound 2 650 mg/kg 24 h infusion
Procedure: CB17 SCID female mice, 5 mice per group, who were not bearing tumors were administered a lethal dose of Compound 2 as a 24 h infusion of Compound 2 at 650 mg/kg. Thereafter, mice were infused with saline for 24 h (Group 1); a niacin solution (12 mg/mL) for 4 hours at a dose of 90 mg/m2/h (30 mg/kg/h) followed by saline for another 20 h at a flow rate of 50 μL/h (Group 2); or a niacin solution (12 mg/mL) for 24 hours at a dose of 90 mg/m^2/h (30 mg/kg/h) with a flow rate of 50 μL/h.

[11] = test system: Jurkat human T cell leukemia cells; test: Sensitization to DNA damaging chemotherapeutic agents, relative ATP viability, 3 days; details: for Fold change (IC50 in Jurkat cells): without vs with 0.5 nM Compound 1
[12] = test system: DMS-114 human small cell lung carcinoma cells; test: as above; assay type: cell-based; details: for Fold change (IC50 in DMS-114 cells): without vs with 0.75 nM Compound 1
HeLa cells = details: Compound 1 20 nM, NM contained 0.1% NA
Procedure: as §1
Viability was measured after 72 hours by ViaLight assay. […] Each point represents the mean and error bars the SD of triplicate samples. […] The concentration of nicotinamide in RPMI 1640 media was […]. HeLa cells were transiently transfected with vector (pcDNA3) or a plasmid expressing a flag-tagged yeast PNC1 gene (pcFLAG-PNC1). […] Relative viability was assessed after 72 hours by ViaLight assay.

[13] = Homo sapiens, Jurkat, 72 h, read-out: IC50 in Jurkat cells (μM), DNA damaging chemotherapeutic agent + No Compound 1
[14] = read-out: IC50 in Jurkat cells (μM), DNA damaging chemotherapeutic agent + 0.5 nM Compound 1, with 0.5 nM Compound 1, 3 days, relative to Compound 1 only control
[15] = Homo sapiens, DMS-114, 72 h, read-out: IC50 in DMS-114 cells (μM), DNA damaging chemotherapeutic agent + No Compound 1, agent alone, 3 days, relative to DMSO control
[16] = read-out: IC50 in DMS-114 cells (μM), DNA damaging chemotherapeutic agent + 0.75 nM Compound 1, with 0.75 nM Compound 1, 3 days, relative to Compound 1 only control

## O=P1(N(CCCl)CCCl)NCCCO1 (stereo not shown) [Cyclophosphamide]
[1]
  Combination effect in the presence of Compound 1: less than additive effect

## O=C(O)c1cccnc1 [nicotinic acid]
T98G (glioblastoma)
  Rescue from Compound 1 induced cytotoxicity by nicotinic acid: not rescued
GCT MFH histiocytoma
  Rescue from Compound 1 induced cytotoxicity by nicotinic acid: not rescued
HT1080 fibrosarcoma
  Rescue from Compound 1 induced cytotoxicity by nicotinic acid: not rescued
[2]
  Rescue from Compound 1 induced cytotoxicity by nicotinic acid: not rescued
A204 rhabdomyosarcoma
  Rescue from Compound 1 induced cytotoxicity by nicotinic acid: not rescued
[3]
  Rescue from decline in NAD^+ levels: can rescue
[4]
  Rescue from NF-κB inhibition: can rescue
Cancer cell lines; 13 sarcoma cell lines, Compound 1 with nicotinic acid
  Percentage of sarcomas not being rescued: 60%
Cancer cell lines; Compound 1 induced cytotoxicity
  Neuroblastoma and glioblastoma cell lines not rescued by nicotinic acid: Two out of three
Cancer cell lines; out of 13 sarcoma cell lines tested, Compound 1 with 0.01, 0.1 and 1 mM nicotinic acid
  Number of sarcoma cell lines not rescued by nicotinic acid: 8
IMR32 (neuroblastoma)
  Rescue from Compound 1 induced cytotoxicity by nicotinic acid: not rescued
U-2OS osteosarcome
  Rescue from Compound 1 induced cytotoxicity by nicotinic acid: not rescued
SW1353 chondrosarcoma
  Rescue from Compound 1 induced cytotoxicity by nicotinic acid: not rescued
[5]
  Rescue from Compound 1 induced cytotoxicity by nicotinic acid: not rescued
MG-63 osteosarcoma
  Rescue from Compound 1 induced cytotoxicity by nicotinic acid: not rescued
[6]; niacin 120 mg/kg 4 hours after Compound 2 150 mg/kg
  Effect of niacin on the anti-tumor activity of Compound 2: unable to inhibit the anti-tumor activity of Compound 2
[6]; niacin 120 mg/kg 4 hours after Compound 2 650 mg/kg
  Effect of niacin on the anti-tumor activity of Compound 2: did not inhibit the anti-tumor activity of Compound 2
[7]; nicotinic acid 120 mg/kg 4 hours infusion after Compound 2 150 mg/kg
  Effect of nicotinic acid on the anti-tumor activity of Compound 2: able to inhibit the anti-tumor activity of Compound 2
[8]
  Rescue from Compound 1 induced cytotoxicity by nicotinic acid: rescue

## CNNCc1ccc(C(=O)NC(C)C)cc1 [Procarbazine]
[1]
  Combination effect in the presence of Compound 1: less than additive effect

## O=C(/C=C/c1cccnc1)NCCCCC1CCN(C(=O)c2ccccc2)CC1 [FK866, (E)-N-[4-(1-benzoylpiperidin-4-yl)butyl]-3-(pyridin-3-yl)acrylamide]
Human NMPRT
  Inhibition of human NMPRT: potent

## COCCOCCOCCOCCOC(=O)OC[n+]1ccc(NC(=NC#N)NCCCCCCOc2ccc(Cl)cc2)cc1.[Cl-] [Compound 2, 1-[2-(2-(2-(2-Methoxyethoxy)-ethoxy)-ethoxy)-ethoxy-carbonyloxymethyl]-4-[N′-cyano-N″-(6-(4-chlorophenoxy)-hexyl)-N-guanidino]-pyridinium chloride]
[9]; Compound 2 250 mg/kg intramuscular QD × 5, no nicotinic acid, 250 mg/kg
  Mortality by day 11: 3 of the 5 and 3/5
[9]; Compound 2 250 mg/kg intramuscular QD × 5, nicotinic acid pre-treatment 200 mg/kg IV QD × 5
  Mortality by day 11: 0/5
[9]; Compound 2 250 mg/kg intramuscular QD × 5, nicotinic acid pre-treatment 200 mg/kg PO QD × 5
  Mortality by day 11: 0/5
[9]; Compound 2 250 mg/kg intramuscular QD × 5, nicotinic acid pre-treatment 200 mg/kg SC QD × 5
  Mortality by day 11: 0/5
[10]; then nicotinic acid 90 mg/m^2/h for 4 h (Group 2)
  Mortality by day 5: 0/4
[10]; then nicotinic acid 90 mg/m^2/h for 24 h (Group 3)
  Mortality by day 5: 0/5
[10]; then saline, no nicotinic acid (Group 1), 650 mg/kg
  Mortality by day 5: 3 of the 5 and 3/5
[6]; Compound 2 150 mg/kg IV 24 hours infusion from day fifteen, observation 22 days
  Tumor growth compared to vehicle: statistically significant reduction in tumor growth
[6]; Compound 2 650 mg/kg IV 24 hours infusion
  Tumor growth compared to vehicle: significant reduction in tumor growth
[6]; Compound 2 650 mg/kg IV 24 hours infusion, tumor-bearing mice
  Mortality in treatment group: mortality of a mouse in this treatment group
[7]; Compound 2 150 mg/kg IV 24 hours infusion from day eight, observation 23 days
  Tumor growth compared to vehicle: statistically significant reduction in tumor growth

## NC(=O)c1ncn([C@@H]2O[C@H](CO)[C@@H](O)[C@H]2O)n1 [Ribavirin]
[11]; [13]
  IC50: 63.3 ± 10 µM
[11]; [14]
  IC50: 15.5 ± 3.1 µM
[11]
  Fold change (IC50 in Jurkat cells): 4.09 ± 0.16
[12]; [15]
  IC50: 172 µM
[12]; [16]
  IC50: 173 µM
[12]
  Fold change (IC50 in DMS-114 cells): 0.99

## O=NN(CCCl)C(=O)NCCCl [Carmustine]
[11]; [13]
  IC50: 2.97 ± 1.1 µM
[11]; [14]
  IC50: 3.13 ± 0.49 µM
[11]
  Fold change (IC50 in Jurkat cells): 0.93 ± 0.21
[12]; [15]
  IC50: 33.3 ± 7.3 µM
[12]; [16]
  IC50: 11.5 ± 3.6 µM
[12]
  Fold change (IC50 in DMS-114 cells): 6.12 ± 7.5

## NC(=O)c1cccnc1 [nicotinamide]
HeLa cells
  Concentrations rescuing viability relative to those required for NA rescue: 1,000 ×

## CN(N=O)C(=O)N[C@H]1C(O)O[C@H](CO)[C@@H](O)[C@@H]1O (mixture of isomers) [Streptozotocin]
[11]; [14]
  IC50: 360 ± 304 µM
[11]; read-out: IC50 in Jurkat cells (μM), DNA damaging chemotherapeutic agent + No Compound 1, agent alone, 3 days, relative to DMSO control
  IC50: 1014 ± 10 µM
[12]; [16]
  IC50: 391 ± 152 µM
[12]; read-out: IC50 in DMS-114 cells (μM), DNA damaging chemotherapeutic agent + No Compound 1, agent alone, 3 days, relative to DMSO control
  IC50: 3960 ± 2270 µM

## Cn1nnc2c(C(N)=O)ncn2c1=O [Temozolomide]
[11]; [13]
  IC50: 212 ± 135 µM
[11]; [14]
  IC50: 158 ± 125 µM
[11]
  Fold change (IC50 in Jurkat cells): 1.46 ± 0.26
[12]; [15]
  IC50: 339 ± 190 µM
[12]; [16]
  IC50: 50.1 ± 7.83 µM
[12]
  Fold change (IC50 in DMS-114 cells): 2.53 ± .11

## Sc1ncnc2nc[nH]c12 [6-Mercaptopurine]
[1]
  Combination effect in the presence of Compound 1: less than additive effect

## CC(=O)O[C@H]1C(=O)[C@@]2(C)[C@H]([C@H](OC(=O)c3ccccc3)[C@]3(O)C[C@H](OC(=O)[C@H](O)[C@@H](NC(=O)c4ccccc4)c4ccccc4)C(C)=C1C3(C)C)[C@]1(OC(C)=O)CO[C@@H]1C[C@@H]2O [Paclitaxel]
[1]
  Combination effect in the presence of Compound 1: less than additive effect
